Patent US8329645B2, “Polymyxin derivatives and uses thereof” (priority 2008, dated 2012)

Assays:
[1] = tested on: Pseudomonas aeruginosa ATCC 27853; test: Growth inhibition around wells on LB agar plates; assay type: cell-based; conditions: Ps. aeruginosa ATCC 27853
Procedure, shortened: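 Activity against Pseudomonas aeruginosa ATCC 27853 was assessed by agar well diffusion on LB plates. A suspension of about 10^8 cells/ml in 0.9% NaCl was spread over the agar and the excess removed. Once the surface had dried, 2 mm wells were drilled and filled with peptide dissolved in 0.9% NaCl. Plates were incubated 18 h at 37° C, and inhibition zone diameters were converted to areas in square mm.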

E. coli = conditions: Sakura et al. (2004); cited from earlier work
[2] = tested on: Ps. aeruginosa ATCC 27853; test: Sensitization to rifampin: growth inhibition around wells on LB plates containing rifampin; assay type: cell-based, Pseudomonas aeruginosa; conditions: 4 μg
E. coli IH3080 [3] = test: as above; assay type: cell-based, Escherichia coli; conditions: 4 μg of compound
E. coli IH3080 [4] = test: Growth inhibition around wells on LB agar plates; assay type: cell-based, Escherichia coli
Procedure, shortened: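 Growth inhibition of encapsulated E. coli IH3080 (K1:O018) was assessed on LB agar plates. A suspension of about 10^8 cells/ml in 0.9% NaCl, made from an overnight LB agar culture, was spread across the plate surface and the excess removed. After drying, 2 mm wells were drilled, with 0.9% NaCl as control. Following 18 h at 37° C., inhibition zone diameters around wells were converted to areas in square mm.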

octanoyl polymyxin B heptapeptide [Octanoyl PMBH, reference compound]
growth inhibition around a well ([1]; 4 μg): 0 square millimeters | growth inhibition around a well ([1]; 10 μg): 13 square millimeters | concentration needed to inhibit the growth of bacteria (E. coli): 128 µg/mL | growth inhibition around a well in the presence of rifampin ([2]; rifampin 0 μg/ml): 0 square millimeters | growth inhibition around a well in the presence of rifampin ([2]; rifampin 0.1 μg/ml): 13 square millimeters | growth inhibition around a well in the presence of rifampin ([2]; rifampin 0.3 μg/ml): 13 square millimeters | growth inhibition around a well in the presence of rifampin (E. coli IH3080 [3]; rifampin 0 μg/ml): 0 square millimeters | growth inhibition around a well in the presence of rifampin (E. coli IH3080 [3]; rifampin 0.1 μg/ml): 0 square millimeters | growth inhibition around a well in the presence of rifampin (E. coli IH3080 [3]; rifampin 1.0 μg/ml): 38 square millimeters | growth inhibition around a well (E. coli IH3080 [4]; 4 μg of compound per well): 0 square millimeters | growth inhibition around a well (E. coli IH3080 [4]; 10 μg of compound per well): 0 square millimeters
